Results published in patent publication US20170119776A1, “CHIRAL 2,5-DISUBSTITUTED CYCLOPENTANECARBOXYLIC ACID DERIVATIVES AND USE THEREOF” (BAYER PHARMA AKTIENGESELLSCHAFT, priority 2014, published 2017).

Experiments:
Type in all cases: biochemical
MMP-7 of the mouse = target: T1, MMP-7 of the mouse (Mus musculus, UniProt Q10738); assay: In vitro MMP-7 inhibition test of the mouse
T1 construct: purchased R&D Systems 2967-MP
T1 sequence (Q10738 95-264): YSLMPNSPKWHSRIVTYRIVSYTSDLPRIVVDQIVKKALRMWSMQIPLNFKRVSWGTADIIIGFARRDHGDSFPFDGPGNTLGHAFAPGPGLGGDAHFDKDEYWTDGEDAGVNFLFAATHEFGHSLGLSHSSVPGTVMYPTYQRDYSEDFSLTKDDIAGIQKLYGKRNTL
Source text: (§1) The activity strength of the compounds according to the invention towards other MMPs (and therefore their selectivity) is likewise ascertained in in vitro inhibition tests. The MMP-mediated amidolytic cleavage of a suitable peptide substrate also leads here to a fluorescent light increase. The signal intensity of the fluorescent light is directly proportional to the enzyme activity. The active concentration of a test compound at which half of the enzyme is inhibited (50% signal intensity of the fluorescent light) is given as IC50 value.
(§2) Recombinant MMP-7 of the mouse (R&D Systems, 2967-MP) is chemically activated in accordance with the manufacturer's instructions using APMA. 1 μl of the test compound to be analysed (as a solution in DMSO, suitable concentrations e.g. 1 nM to 30 μM) is pipetted into 24 μl of activated enzyme (final concentration e.g. 0.5 nM) in reaction buffer (50 mM Tris/HCl pH 7.5, 10 mM CaCl2, 150 mM NaCl, 0.05% Brij®-35) in a white 384-hole microtiter plate (MTP). The enzymatic reaction is started by adding the intramolecularly quenched substrate Mca-Lys-Pro-Leu-Gly-Leu-Dpa(Dnp)-Ala-Arg-NH2 (final concentration e.g. 5 μM; R&D Systems, ES-010), such that a total test volume of 50 μl results. The progress of the MMP-7 reaction is measured by measuring the fluorescence intensity (excitation 320 nm, emission 410 nm) over a suitable period (e.g. over 120 min at a temperature of 32° C.).
(§3) Tables 3A and 3B below give the IC50 values from these tests for the inhibition of rodent MMPs for representative embodiment examples of the present invention and also for two structurally related comparison compounds from the prior art (as racemate and separated enantiomer)→(in part as average values from several independent individual determinations and rounded to two significant places). The IC50 values were determined for racemates and enantiomers from differently generated DMSO stock solutions. Whereas an automatically created DMSO stock solution from the internal substance logistics was used for racemates by means of a standard method, in the case of enantiomers, in each case a freshly produced, manually prepared DMSO stock solution was used for a more precise direct comparison of the enantiomers with one another.

MMP-12 of the rat = target: T2, MMP-12 of the rat (Rattus norvegicus, UniProt Q63341); assay: In vitro MMP-12 inhibition test of the rat
T2 construct: MMP-12 of the rat (Uniprot NP_446415.1; construct L96-V277); made in house; host or cells: E. coli (BL21), pDEco7 vector
T2 sequence (Q63341 96-277): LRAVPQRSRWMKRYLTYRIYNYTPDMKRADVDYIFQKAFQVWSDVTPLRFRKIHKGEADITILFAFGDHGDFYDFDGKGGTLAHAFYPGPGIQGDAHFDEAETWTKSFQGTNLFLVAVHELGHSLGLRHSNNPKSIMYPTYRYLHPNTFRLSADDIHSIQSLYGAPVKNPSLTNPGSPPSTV
Source text: as §1
MMP-12 of the rat (Uniprot NP_446415.1; construct L96-V277) is expressed with an additional N-terminal His-Tag and a consecutive TEV cleavage sequence by means of a pDEco7 vector in E. coli (BL21). The thus recombinantly expressed protein forms an intracellular insoluble protein compartment (so-called inclusion body). This is solubilized after separation and intensive washing under denaturing conditions. For this, the inclusion body pellet fraction from a 250 ml E. coli culture is taken up in a volume of 120 ml of buffer A (50 mM Tris pH 7.4, 100 mM NaCl, 0.03 mM ZnCl2, 10 mM CaCl2, 8 M urea). The soluble protein is renatured by in each case dialysing 60 ml of the sample several times at 4-8° C. against buffer B (50 mM Tris pH 7.4, 100 mM NaCl, 0.03 mM ZnCl2, 10 mM CaCl2). After the dialysis, the sample is centrifuged (25 000×g). The folded-back protein is obtained in the supernatant with a yield of 3.7 mg per 250 ml E. coli culture. The thus obtained protein is enzymatically active without further purification operations or protease-mediated cleavage processes.
as §2, with “1” for “Recombinant MMP-7 of the mouse (R&D Systems, 2967-MP) is chemically activated in accordance with the manufacturer's instructions using APMA. 1”, “MMP-12 protein” for “activated enzyme”, “1” for “0.5”, “Mca-Pro-Leu-Gly-Leu-Dpa(Dnp)-Ala-Arg-NH2” for “Mca-Lys-Pro-Leu-Gly-Leu-Dpa(Dnp)-Ala-Arg-NH2”, “ES-001),” for “ES-010),”, “MMP-12” for “MMP-7”
as §3

MMP-9 of the mouse = target: T3, MMP-9 of the mouse (Mus musculus, UniProt P41245); assay: In vitro MMP-9 inhibition test of the mouse
T3 construct: purchased R&D Systems 909-MP
T3 sequence (P41245 108-730): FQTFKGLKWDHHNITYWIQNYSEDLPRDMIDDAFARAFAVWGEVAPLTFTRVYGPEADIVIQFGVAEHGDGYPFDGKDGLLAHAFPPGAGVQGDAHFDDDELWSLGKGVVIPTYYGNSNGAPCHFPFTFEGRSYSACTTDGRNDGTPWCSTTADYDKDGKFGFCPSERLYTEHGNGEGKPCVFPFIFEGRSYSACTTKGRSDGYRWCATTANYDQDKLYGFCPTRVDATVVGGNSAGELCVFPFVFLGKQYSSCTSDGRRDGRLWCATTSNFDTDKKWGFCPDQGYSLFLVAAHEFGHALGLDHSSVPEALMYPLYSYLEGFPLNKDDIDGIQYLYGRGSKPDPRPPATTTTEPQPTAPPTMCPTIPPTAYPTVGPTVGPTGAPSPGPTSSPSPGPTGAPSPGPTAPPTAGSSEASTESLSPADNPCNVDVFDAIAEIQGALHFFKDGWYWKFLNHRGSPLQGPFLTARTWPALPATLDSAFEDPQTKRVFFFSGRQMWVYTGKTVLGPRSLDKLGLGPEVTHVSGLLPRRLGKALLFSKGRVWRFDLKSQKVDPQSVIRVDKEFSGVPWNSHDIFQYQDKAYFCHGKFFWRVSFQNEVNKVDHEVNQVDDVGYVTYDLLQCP
Source text: as §1
as §2, with “MMP-9” for “MMP-7”, “909-MP)” for “2967-MP)”, “0.1” for “0.5”, “Mca-Pro-Leu-Gly-Leu-Dpa(Dnp)-Ala-Arg-NH2” for “Mca-Lys-Pro-Leu-Gly-Leu-Dpa(Dnp)-Ala-Arg-NH2”, “ES-001),” for “ES-010),”
as §3

SMILES | IC50 (MMP-7 of the mouse) | IC50 (MMP-12 of the rat) | IC50 (MMP-9 of the mouse)
O=C(O)[C@H]1[C@H](Cn2nnc3ccccc3c2=O)CC[C@@H]1C(=O)c1ccc(-c2ccc(Cl)cc2)cc1 (racemic) [Comparative Example A-1, (1RS,2RS,5SR)-2-[(4′-chlorobiphenyl-4-yl)carbonyl]-5-[(4-oxo-1,2,3-benzotriazin-3(4H)-yl)methyl]cyclopentanecarboxylic acid (racemate)] | 15 nM | < 0.61 nM | 4.9 nM
CCCCCOc1ccc(C(=O)CC(CCn2nnc3ccccc3c2=O)C(=O)O)cc1 (racemic) [Comparative Example B-1, (+/−)-4-Oxo-2-[2-(4-oxo-1,2,3-benzotriazin-3(4H)-yl)ethyl]-4-[4-(pentyloxy)phenyl]butanoic acid (racemate)] | 1400 nM | 29.3 nM | 2700 nM
O=C(O)[C@H]1[C@H](Cn2nnc3ccccc3c2=O)CC[C@@H]1C(=O)c1ccc(OCc2ccccc2)cc1 (racemic) [Example 1, (+/−)-(1RS,2RS,5SR)-2-[4-(Benzyloxy)benzoyl]-5-[(4-oxo-1,2,3-benzotriazin-3(4H)-yl)methyl]cyclopentanecarboxylic acid (racemate)] | 46 nM | < 1 nM | 71 nM
CCCCCOc1ccc(C(=O)CC(CCn2nnc3ccccc3c2=O)C(=O)O)cc1 (single isomer, unassigned; enantiomer 1) [Comparative Example B-2, (+)-4-Oxo-2-[2-(4-oxo-1,2,3-benzotriazin-3(4H)-yl)ethyl]-4-[4-(pentyloxy)phenyl]butanoic acid (enantiomer 1)] | 525 nM | 24.5 nM | 905 nM
O=C(O)[C@@H]1[C@@H](Cn2nnc3ccccc3c2=O)CC[C@H]1C(=O)c1ccc(-c2ccc(Cl)cc2)cc1 (single isomer, unassigned; enantiomer 2) [Comparative Example A-3, (1RS,2RS,5SR)-2-[(4′-Chlorobiphenyl-4-yl)carbonyl]-5-[(4-oxo-1,2,3-benzotriazin-3(4H)-yl)methyl]cyclopentanecarboxylic acid (enantiomer 2)] | 6.2 nM | < 0.61 nM | 1.5 nM
O=C(O)[C@H]1[C@H](Cn2nnc3ccccc3c2=O)CC[C@@H]1C(=O)c1ccc(OCc2ccccc2)cc1 [Example 2, (+)-(1S,2S,5R)-2-[4-(Benzyloxy)benzoyl]-5-[(4-oxo-1,2,3-benzotriazin-3(4H)-yl)methyl]cyclopentanecarboxylic acid] | 22 nM | < 0.61 nM | 27.5 nM
